US11344527B2, “Methods and compositions for treating cancer” (Sutter West Bay Hospitals, priority 2007, dated 2022)
Entries after “also recorded” stand apart in the source; their conditions may differ. Where two headings read alike, the source gives them in different places.

Key:
Id-1 = Id-1 protein expression by quantitative Western analysis, MDA-MB231; assay type: cell-based, human; conditions: MDA-MB231 cells, 1.5 μM, two days, FIG. 1E
Excerpt: Proteins were separated by SDS/PAGE, blotted on Immobilon membrane, and probed with anti-Id-1 and the appropriate secondary antibody. Band intensity values were obtained directly from the blot using AlphaeaseFC software (San Leandro, Calif.) or from film using Image-J (NIH, MD). As a normalization control for loading, blots were stripped and re-probed with mouse alpha-tubulin (Abeam, Cambridge, Mass.).
The ability of CBD to regulate the expression of key genes that control breast cancer cell aggressiveness and invasiveness was determined A potential candidate protein that could mediate the effects of CBD on both phenotypes was the helix-loop-helix protein Id-1. […] The inhibitory effect of CBD on Id-1 expression occurred at concentrations as low as 100 nM. […] The CBD concentrations effective at inhibiting Id-1 expression correlated with those used to inhibit the proliferative and invasive phenotype of MDA-MB231 cells. Furthermore, the time period needed to observe the down-regulation of Id-1 protein in the presence of CBD correlated with the inhibitory effects of CBD on the aggressiveness and invasiveness of MDA-MB231 cells (FIG. 1, panel D).
In order to determine the SAR between cannabinoids and the inhibition of Id-1, MDA-MB231 cells were treated for two days with multiple cannabinoid compounds and Id-1 protein levels were assessed.

SF126 cells = assay: MTT cell proliferation assay, SF126 GBM cells; assay type: cell-based, human; conditions: read-out: IC50 antiproliferative, SF126
Method: (§1) The human GBM cell lines used were SF126, U87 and U251. Cell lines were maintained at 37° C. and 5% CO2.
(§2) Treatment groups were divided into 1) no treatment (control), 2) Δ^9-THC alone, 3) CBD alone, 4) Δ^9-THC and CBD combined. Positive and negative aspects of constituent interaction were determined in this 2×2 design using 2-way analysis of variance as described by (Slinker, 1998). […] Significant differences were also determined using ANOVA where suitable. […] P values <0.05 defined statistical significance.

MDA-MB231 cells [1] = assay: MTT cell proliferation assay, MDA-MB231; conditions: read-out: IC50 antiproliferative, MDA-MB231
MDA-MB436 cells = assay: MTT cell proliferation assay, MDA-MB436; conditions: read-out: IC50 antiproliferative, MDA-MB436
MDA-MB231 cells [2] = assay: Boyden chamber invasion assay, MDA-MB231; assay type: cell-based, human; conditions: 0.1, 1.0 or 1.5 μM; FIG. 1A
Method: Invasion is an important step towards breast cancer cell metastasis. Therefore, the effects of several cannabinoids were tested on their ability to modulate the migratory and invasiveness activity of the most aggressive human breast cancer cell line, MDA-MB231, in a reconstituted basement membrane in a Boyden chamber.

U87 cells = assay: MTT cell proliferation assay, U87 GBM cells; assay type: cell-based, human; conditions: seven day treatment, 95% confidence limits, read-out: IC50 antiproliferative, U87
Method: as §1, §2

U251 cells = assay: MTT cell proliferation assay, U251 GBM cells; assay type: cell-based, human; conditions: seven day treatment, 95% confidence limits, read-out: IC50 antiproliferative, U251
Method: as §1, §2

[3] = Homo sapiens, SF-126, 72 h, three day treatment, 95% confidence limits (Table 4)
[4] = three day treatment, 95% confidence limits (Table 4)
[5] = treated for three days, value with confidence limits

Structure (SMILES)	inhibition of Id-1 protein (structure activity relationship) (Id-1)	IC50 (SF126 cells; [3]) [nM]	IC50 (MDA-MB231 cells [1]; Homo sapiens, MDA-MB-231, 72 h) [nM]	IC50 (MDA-MB436 cells; Homo sapiens, MDA-MB-436, 72 h) [nM]	IC50 (SF126 cells; [4]) [nM]	IC50 (MDA-MB231 cells [1]; [5]) [nM]	IC50 (MDA-MB436 cells; [5]) [nM]	also measured
C=C(C)[C@@H]1CCC(C)=C[C@H]1c1c(C)cc(O)cc1O [0-1602]	No inhibition							
C=C(C)[C@@H]1CCC(C)=C[C@H]1c1c(O)cc(O)cc1CCCCC [Abn-CBD]	No inhibition							
CCCCCc1cc(O)c(C/C=C(\C)CCC=C(C)C)c(O)c1 [CBG, cannabigerol]		1600	2300	2100				
CCCCCc1cc(O)c2c(c1)OC(C)(C)c1ccc(C)cc1-2 [CBN, cannabinol]	partially inhibit	1200	1200	2600				
CCCCCCC(C)(C)c1ccc([C@@H]2C[C@H](O)CC[C@H]2CCCO)c(O)c1 [CP 55,940]	partially inhibit; also recorded: inhibited Id-1 expression				3300	2500	1300	inhibition of Id-1 protein (structure activity relationship) (Id-1; 940): small inhibition
Cc1c(C(=O)c2cccc3ccccc23)c2cccc3c2n1[C@H](CN1CCOCC1)CO3 [WIN 55,212-2]					1300	1700	2400	invasion of MDA-MB231 cells (MDA-MB231 cells [2]): significantly reduced; IC50 (SF126 cells; seven day treatment, 95% confidence limits): 840 nM; IC50 (U87 cells): 770 nM; IC50 (U251 cells): 1100 nM
